Assay results published in patent US11352396B2, “Antimicrobial peptides and methods of using same” (Zoetis Services LLC, priority 2017, dated 2022).

What was measured:
S. aureus ATCC 29213 = assay type: cell-based; design: key to SA 29213: MIC in μM (lowest conc. with no visible growth); details: S. aureus 29213, Table 6
Method: (§1) Peptides according to SEQ ID NOs as listed in Table 1 were prepared by a commercial manufacturer (CS Bio, Menlo Park, Calif.) using solid phase synthesis. Antimicrobial activity was assessed by determining the Minimal Inhibitory Concentration (MIC) against S. aureus and E. coli. Briefly, Microbroth MICs were performed using CLSI methodology (VET01-S2). For S. aureus and E. coli ATCC strains, TSA with 5% lysed horse blood agar was used for overnight culturing at 37° C. ambient air. A 0.5 mM stock for each peptide was made with cell culture water, 0.01% acetic acid and serially diluted and spotted (10 μL) in a 96-well plate for in assay dose titration concentration of 50 μM to 0.05 μM. 0.5 McFarland Standard of each strain was diluted 1:250 in Mueller-Hinton Broth (MHB). 90 μL of culture suspension was then added upon drug in the 96-well plate for overnight incubation for 18-20 hours. The MIC was determined visually at the first well of no visible growth at the corresponding concentration.

E. coli ATCC 25922 = assay type: cell-based; details: E. coli 25922, Table 6
Method: as §1

[1] = tested on: MRSP (Methicillin-Resistant Staphylococcus pseudintermedius); assay: MIC against selected strains of MRSP; assay type: cell-based; design: key to MIC MRSP 72192 / MIC MRSP 76923 / MR 71994 / Mr 88493 / MR 72035 / MR 72192 / MR 76923 / MR 79882 / MR 80279 / MR 81926 / MR 86002 / MR 87665: MIC in μM (visual, first well with no growth); details: for MR 71994: MRSP strain 71994, Table 6; for MR 72035: MRSP strain 72035, Table 6; for MR 72192: MRSP strain 72192, Table 6; for MR 76923: MRSP strain 76923, Table 6; for MR 79882: MRSP strain 79882, Table 6; for MR 80279: MRSP strain 80279, Table 6; for MR 81926: MRSP strain 81926, Table 6; for MR 86002: MRSP strain 86002, Table 6; for MR 87665: MRSP strain 87665, Table 6; for Mr 88493: MRSP strain 88493, Table 6
In short: (§2)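 MIC read by eye as the first well showing no growth after 18–20 h incubation. Cultures at 0.5 McFarland were diluted 1:250 in Mueller-Hinton broth and exposed to peptide over 50 μM–0.05 μM in the assay, per CLSI VET01-S2 microbroth method.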

cRBC = assay type: cell-based, canine
In short: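 Percent lysis, measured by absorbance at 405 nm, used 1% Triton X-100 as full effect and phosphate buffer as zero. Peptides spanned 50 µM–0.05 µM and were held with plasma-depleted washed erythrocytes at 37 °C for 1 h.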

[2] = tested on: MSSP (Methicillin-Susceptible Staphylococcus pseudintermedius); assay: MIC against selected strains of MSSP; assay type: cell-based; design: MIC MSSP 49051 / MIC MSSP 81923 / MIC MSSP 84250 / Effect on MSSP 86000 / Effect on MSSP 72036 / Effect on MSSP 78032: unit not given beside the values; Effect on MSSP 71990 / Effect on MSSP 86001 / Effect on MSSP 72191 / Effect on MSSP 76986 / Effect on MSSP 77378 / Effect on MSSP 81923 / Effect on MSSP 84250 / Effect on MSSP 84658: unit: µM; details: for SP 49051: S. pseudintermedius 49051, Table 6; for Effect on MSSP 71990: strain 71990, Table 5; for Effect on MSSP 72036: strain 72036, Table 5; for Effect on MSSP 72191: strain 72191, Table 5; for Effect on MSSP 76986: strain 76986, Table 5; for Effect on MSSP 77378: strain 77378, Table 5; for Effect on MSSP 78032: strain 78032, Table 5; for Effect on MSSP 81923: strain 81923, Table 5; for Effect on MSSP 84250: strain 84250, Table 5; for Effect on MSSP 84658: strain 84658, Table 5; for Effect on MSSP 86000: strain 86000, Table 5; for Effect on MSSP 86001: strain 86001, Table 5
In short: as §2

[3] = tested on: Canine-derived epithelial keratinocyte (CPEK) cells; assay type: cell-based
In short: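 Viability was read by CellTiter-Glo luminescence after overnight exposure (37 °C, 5% CO2) of canine keratinocytes to a peptide range of 50–0.05 μM. Percent effect used phosphate buffer as the zero control and 0.1% Triton X-100 as the full-effect control.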

Row | Substance | SA 29213 (S. aureus ATCC 29213) | EC 25922 (E. coli ATCC 25922) | MR 71994 [1] | MR 72035 [1] | MR 72192 [1] | MR 76923 [1] | MR 79882 [1] | MR 80279 [1] | MR 81926 [1] | MR 86002 [1] | MR 87665 [1] | Mr 88493 [1] | cRBC (50 μM) (cRBC) | SP 49051 [2] | Effect on MSSP 71990 [2] | Effect on MSSP 72036 [2] | Effect on MSSP 72191 [2] | Effect on MSSP 76986 [2] | Effect on MSSP 77378 [2] | Effect on MSSP 78032 [2] | also measured
1 | 99 (KWCFFVCYRGICYRRCRD; Artificial Antimicrobial peptide) [compound 99] | 6.2 | 1.6 µM | 1.6 | 3.1 | 3.1 | 1.6 | 1.6 | 1.6 | 3.1 | 3.1 | 1.6 | 1.6 | 100.0 | 3.1 | 1.6 | 1.6 | 3.1 | 1.6 | 1.6 | 1.6 | Effect on MSSP 81923 [2]: 1.6; Effect on MSSP 84250 [2]: 3.1; Effect on MSSP 84658 [2]: 3.1; Effect on MSSP 86000 [2]: 3.1; Effect on MSSP 86001 [2]: 1.6; CPEK (50 μM) [3]: 19.9
2 | 100 (KWCFWVCYRGICYRRCRD; Artificial Antimicrobial peptide) [compound 100] | 6.2 | 0.8 µM | 1.6 | 3.1 | 1.6 | 1.6 | 1.6 | 1.6 | 1.6 | 1.6 | 1.6 | 3.1 | 100.0 | 1.6 | 1.6 | 1.6 | 3.1 | 1.6 | 3.1 | 1.6 | Effect on MSSP 81923 [2]: 1.6; Effect on MSSP 84250 [2]: 1.6; Effect on MSSP 84658 [2]: 1.6; Effect on MSSP 86000 [2]: 1.6; Effect on MSSP 86001 [2]: 1.6; CPEK (50 μM) [3]: 29.5
3 | 102 (KWCFRACYRGICYRRCRD; Artificial Antimicrobial peptide) [compound 102] | 6.2 | 1.6 µM | 3.1 | 3.1 | 1.6 | 1.6 | 1.6 | 1.6 | 1.6 | 1.6 | 1.6 | 3.1 | 23.9 | 1.6 | 1.6 | 1.6 | 3.1 | 1.6 | 0.8 | 1.6 | Effect on MSSP 81923 [2]: 1.6; Effect on MSSP 84250 [2]: 1.6; Effect on MSSP 84658 [2]: 1.6; Effect on MSSP 86000 [2]: 1.6; Effect on MSSP 86001 [2]: 1.6; CPEK (50 μM) [3]: −2.1
